Measured values as given in patent US10040790B2, “Bicyclic heterocycles as FGFR inhibitors” (Incyte Corporation, priority 2013, dated 2018).

Experiments:
Format in all cases: biochemical
[1] = target: FGFR2 (Homo sapiens (Human), UniProt P21802); test: FGFR Enzymatic Assay (FRET peptide phosphorylation), FGFR2; settings: ATP 100 μM, enzyme 0.01 nM
Method: (§1) The inhibitor potency of the exemplified compounds was measured in an enzyme assay that measures peptide phosphorylation using FRET measurements to detect product formation. Inhibitors were serially diluted in DMSO and a volume of 0.5 μL was transferred to the wells of a 384-well plate. For FGFR3, a 10 μL volume of FGFR3 enzyme (Millipore) diluted in assay buffer (50 mM HEPES, 10 mM MgCl2, 1 mM EGTA, 0.01% Tween-20, 5 mM DTT, pH 7.5) was added to the plate and pre-incubated for 5-10 minutes. Appropriate controls (enzyme blank and enzyme with no inhibitor) were included on the plate. The assay was initiated by the addition of a 10 μL solution containing biotinylated EQEDEPEGDYFEWLE peptide substrate (SEQ ID NO: 1) and ATP (final concentrations of 500 nM and 140 μM respectively) in assay buffer to the wells. The plate was incubated at 25° C. for 1 hr. The reactions were ended with the addition of 10 μL/well of quench solution (50 mM Tris, 150 mM NaCl, 0.5 mg/mL BSA, pH 7.8; 30 mM EDTA with Perkin Elmer Lance Reagents at 3.75 nM Eu-antibody PY20 and 180 nM APC-Streptavidin). The plate was allowed to equilibrate for ˜1 hr before scanning the wells on a PheraStar plate reader (BMG Labtech).
(§2) FGFR1 and FGFR2 were measured under equivalent conditions with the following changes in enzyme and ATP concentrations: FGFR1, 0.02 nM and 210 μM, respectively and FGFR2, 0.01 nM and 100 μM, respectively. The enzymes were purchased from Millipore or Invitrogen.
(§3) GraphPad prism3 was used to analyze the data. The IC50 values were derived by fitting the data to the equation for a sigmoidal dose-response with a variable slope. Y=Bottom+(Top−Bottom)/(1+10^((Log IC50−X)*HillSlope)) where X is the logarithm of concentration and Y is the response.

[2] = target: FGFR3 (Homo sapiens (Human), UniProt P22607); test: FGFR Enzymatic Assay (FRET peptide phosphorylation), FGFR3; settings: ATP 140 μM
Chain of FGFR3 (P22607 23-806): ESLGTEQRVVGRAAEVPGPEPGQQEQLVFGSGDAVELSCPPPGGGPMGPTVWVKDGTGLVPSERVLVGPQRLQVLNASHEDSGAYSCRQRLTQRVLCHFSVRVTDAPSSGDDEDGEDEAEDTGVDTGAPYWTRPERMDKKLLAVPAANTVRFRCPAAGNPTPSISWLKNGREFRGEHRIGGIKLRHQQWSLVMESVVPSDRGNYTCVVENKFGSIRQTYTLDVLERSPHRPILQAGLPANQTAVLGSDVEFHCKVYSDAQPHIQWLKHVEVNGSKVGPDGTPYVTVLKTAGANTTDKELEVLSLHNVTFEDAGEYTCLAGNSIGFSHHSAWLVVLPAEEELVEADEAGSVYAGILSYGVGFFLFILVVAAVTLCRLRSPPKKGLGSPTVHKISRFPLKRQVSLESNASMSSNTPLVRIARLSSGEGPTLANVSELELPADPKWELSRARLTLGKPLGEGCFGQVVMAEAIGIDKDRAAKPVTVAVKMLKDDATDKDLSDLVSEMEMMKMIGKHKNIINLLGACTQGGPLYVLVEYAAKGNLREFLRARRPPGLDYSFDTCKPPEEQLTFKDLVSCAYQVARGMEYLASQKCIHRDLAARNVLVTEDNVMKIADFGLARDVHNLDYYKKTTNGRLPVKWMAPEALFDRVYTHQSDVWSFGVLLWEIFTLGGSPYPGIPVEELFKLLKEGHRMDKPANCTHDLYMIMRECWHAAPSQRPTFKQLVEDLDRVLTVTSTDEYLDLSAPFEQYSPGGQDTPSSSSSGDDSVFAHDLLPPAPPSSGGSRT
Method: as §1, §3

[3] = target: FGFR1 (Homo sapiens (Human), UniProt P11362); test: FGFR Enzymatic Assay (FRET peptide phosphorylation), FGFR1; settings: ATP 210 μM, enzyme 0.02 nM
Chain of FGFR1 (P11362 22-822): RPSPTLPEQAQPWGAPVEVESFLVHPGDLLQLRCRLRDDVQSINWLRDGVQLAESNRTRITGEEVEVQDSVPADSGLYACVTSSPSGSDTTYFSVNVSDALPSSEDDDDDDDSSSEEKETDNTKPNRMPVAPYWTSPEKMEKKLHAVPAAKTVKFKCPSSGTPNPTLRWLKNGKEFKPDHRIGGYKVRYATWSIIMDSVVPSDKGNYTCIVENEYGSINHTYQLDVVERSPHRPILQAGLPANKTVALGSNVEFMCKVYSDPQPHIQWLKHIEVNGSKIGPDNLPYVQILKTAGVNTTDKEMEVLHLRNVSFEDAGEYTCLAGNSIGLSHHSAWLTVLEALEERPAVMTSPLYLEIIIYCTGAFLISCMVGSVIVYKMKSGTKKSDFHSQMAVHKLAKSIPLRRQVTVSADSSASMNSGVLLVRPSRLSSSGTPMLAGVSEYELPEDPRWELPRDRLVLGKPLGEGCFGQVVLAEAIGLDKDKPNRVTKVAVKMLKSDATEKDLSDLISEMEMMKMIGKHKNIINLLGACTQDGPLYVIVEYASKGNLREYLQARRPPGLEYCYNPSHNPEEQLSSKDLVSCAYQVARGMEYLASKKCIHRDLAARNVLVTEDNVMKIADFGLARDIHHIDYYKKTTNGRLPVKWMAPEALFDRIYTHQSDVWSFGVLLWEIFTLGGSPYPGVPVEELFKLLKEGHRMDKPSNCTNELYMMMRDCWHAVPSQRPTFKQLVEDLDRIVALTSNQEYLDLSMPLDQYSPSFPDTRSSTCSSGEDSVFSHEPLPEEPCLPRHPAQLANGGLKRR
Method: as §1, §2, §3

Chain of FGFR2 (P21802 22-821): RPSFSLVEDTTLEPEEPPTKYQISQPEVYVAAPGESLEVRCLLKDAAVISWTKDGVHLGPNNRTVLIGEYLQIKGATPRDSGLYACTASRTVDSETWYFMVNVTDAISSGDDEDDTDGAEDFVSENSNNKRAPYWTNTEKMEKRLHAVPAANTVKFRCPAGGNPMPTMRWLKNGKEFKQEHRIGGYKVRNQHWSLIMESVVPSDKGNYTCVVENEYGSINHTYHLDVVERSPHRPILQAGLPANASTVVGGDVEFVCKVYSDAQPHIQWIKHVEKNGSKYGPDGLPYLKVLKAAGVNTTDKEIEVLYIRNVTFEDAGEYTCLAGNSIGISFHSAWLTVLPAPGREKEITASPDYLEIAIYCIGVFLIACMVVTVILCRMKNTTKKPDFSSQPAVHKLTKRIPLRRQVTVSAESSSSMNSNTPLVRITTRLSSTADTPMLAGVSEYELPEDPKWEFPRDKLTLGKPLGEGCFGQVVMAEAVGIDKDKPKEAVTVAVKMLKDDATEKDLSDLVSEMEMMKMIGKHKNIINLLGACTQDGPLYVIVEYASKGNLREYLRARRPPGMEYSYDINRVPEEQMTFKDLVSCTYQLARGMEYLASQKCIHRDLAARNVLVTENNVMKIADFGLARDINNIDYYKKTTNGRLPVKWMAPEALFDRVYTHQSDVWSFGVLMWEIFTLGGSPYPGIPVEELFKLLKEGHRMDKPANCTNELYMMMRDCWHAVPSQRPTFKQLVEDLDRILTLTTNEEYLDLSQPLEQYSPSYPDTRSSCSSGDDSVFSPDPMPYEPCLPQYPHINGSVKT

Row | SMILES | IC50 [1] [nM] | IC50 [2] [nM] | IC50 [3] [nM]
1 | COc1cc(OC)c(F)c(N2Cc3cnc(N)c(C#N)c3N(Cc3cc(F)cc(F)c3)C2=O)c1F [Example 52, 7-amino-1-(3,5-difluorobenzyl)-3-(2,6-difluoro-3,5-dimethoxyphenyl)-2-oxo-1,2,3,4-tetrahydropyrido[4,3-d]pyrimidine-8-carbonitrile] | < 100 | < 100 | < 100
2 | COc1cc(OC)c(F)c(N2Cc3cnc(N)c(C)c3N(Cc3cnn(C)c3)C2=O)c1F [Example 47, 7-amino-3-(2,6-difluoro-3,5-dimethoxyphenyl)-8-methyl-1-[(1-methyl-1H-pyrazol-4-yl)methyl]-3,4-dihydropyrido[4,3-d]pyrimidin-2(1H)-one] | < 100 | < 100 | < 100
3 | COc1cc(OC)c(F)c(N2Cc3cnc(NC4CCOCC4)cc3C3(CC3)C2=O)c1F [Example 26, 2′-(2,6-difluoro-3,5-dimethoxyphenyl)-6′-(tetrahydro-2H-pyran-4-ylamino)-1′,2′-dihydro-3′H-spiro[cyclopropane-1,4′-[2,7]naphthyridin]-3′-one] | < 100 | < 100 | < 100
4 | COC(=O)Nc1ncc2c(c1C)N(C)C(=O)N(c1c(F)c(OC)cc(OC)c1F)C2 [Example 48, methyl [3-(2,6-difluoro-3,5-dimethoxyphenyl)-1,8-dimethyl-2-oxo-1,2,3,4-tetrahydropyrido [4,3-d]pyrimidin-7-yl]carbamate] | < 100 | < 100 | < 100
5 | COc1cc(OC)c(F)c(N2Cc3cnc(N)c(C)c3N(C)C2=O)c1F [Example 1, 7-amino-3-(2,6-difluoro-3,5-dimethoxyphenyl)-1,8-dimethyl-3,4-dihydropyrido[4,3-d]pyrimidin-2(1H)-one] | < 100 | < 100 | < 100
6 | COc1cc(OC)c(F)c(N2Cc3cnc(N)cc3C3(CC3)C2=O)c1F [Example 24, 6′-amino-2′-(2,6-difluoro-3,5-dimethoxyphenyl)-1′H-spiro[cyclopropane-1,4′-[2,7]naphthyridin]-3′(2′H)-one] | < 100 | < 100 | < 100
7 | COc1cc(OC)c(F)c(N2Cc3cnc(N)c(-c4ccncc4)c3N(C)C2=O)c1F [Example 17, 7-amino-3-(2,6-difluoro-3,5-dimethoxyphenyl)-1-methyl-8-pyridin-4-yl-3,4-dihydropyrido[4,3-d]pyrimidin-2(1H)-one] | < 100 | < 100 | < 100
8 | COc1cc(OC)c(F)c(N2Cc3cnc(NCc4cnn(C)c4)cc3C3(CC3)C2=O)c1F [Example 37, 2′-(2,6-difluoro-3,5-dimethoxyphenyl)-6′-((1-methyl-1H-pyrazol-4-yl)methylamino)-1′H-spiro[cyclopropane-1,4′-[2,7]naphthyridin]-3′(2′H)-one] | < 100 | < 100 | < 100
9 | COc1cc(OC)c(F)c(N2Cc3cnc(N)c(C#N)c3N(C3CCCC3)C2=O)c1F [Example 50, 7-amino-1-cyclopentyl-3-(2,6-difluoro-3,5-dimethoxyphenyl)-2-oxo-1,2,3,4-tetrahydropyrido[4,3-d]pyrimidine-8-carbonitrile] | < 100 | < 100 | < 100
10 | COc1cc(OC)c(F)c(N2Cc3cnc(NCc4ccccn4)cc3C3(CC3)C2=O)c1F [Example 28, 2′-(2,6-difluoro-3,5-dimethoxyphenyl)-6′-(pyridin-2-ylmethylamino)-1′H-spiro[cyclopropane-1,4′-[2,7]naphthyridin]-3′(2′H)-one] | < 100 | < 100 | < 100
11 | COc1cc(OC)c(F)c(N2Cc3cnc(NCCN4CCOCC4)cc3C3(CC3)C2=O)c1F [Example 23, 2′-(2,6-difluoro-3,5-dimethoxyphenyl)-6′-[(2-morpholin-4-ylethyl)amino]-1′,2′-dihydro-3′H-spiro[cyclopropane-1,4′-[2,7]naphthyridin]-3′-one] | < 100 | < 100 | < 100

The next lines start with the values.

Row | IC50 [1] [nM] | IC50 [2] [nM] | IC50 [3] [nM] | SMILES
12 | < 100 | < 100 | < 100 | COc1cc(OC)c(F)c(N2Cc3cnc(N[C@H]4CCOC4)cc3C3(CC3)C2=O)c1F [Example 29, (S)-2′-(2,6-difluoro-3,5-dimethoxyphenyl)-6′-(tetrahydrofuran-3-ylamino)-1′H-spiro[cyclopropane-1,4′-[2,7]naphthyridin]-3′(2′H)-one]
13 | < 100 | < 100 | < 100 | COc1cc(OC)c(F)c(N2Cc3cnc(N)c(/C=C/c4ccccc4)c3N(C)C2=O)c1F [Example 18, 7-amino-3-(2,6-difluoro-3,5-dimethoxyphenyl)-1-methyl-8-[(E)-2-phenylvinyl]-3,4-dihydropyrido[4,3-d]pyrimidin-2(1H)-one]
14 | < 100 | < 100 | < 100 | COc1cc(OC)c(F)c(N2Cc3cnc(N)c(Oc4ccccc4)c3N(C)C2=O)c1F [Example 7, 7-amino-3-(2,6-difluoro-3,5-dimethoxyphenyl)-1-methyl-8-phenoxy-3,4-dihydropyrido[4,3-d]pyrimidin-2(1H)-one]
15 | < 100 | < 100 | < 100 | CCc1c(N)ncc2c1N(C)C(=O)N(c1c(F)c(OC)cc(OC)c1F)C2 [Example 2, 7-amino-3-(2,6-difluoro-3,5-dimethoxyphenyl)-8-ethyl-1-methyl-3,4-dihydropyrido[4,3-d]pyrimidin-2(1H)-one]
16 | < 100 | < 100 | < 100 | COc1cc(OC)c(F)c(N2Cc3cnc(N)c(-c4ccccc4)c3N(C)C2=O)c1F [Example 14, 7-amino-3-(2,6-difluoro-3,5-dimethoxyphenyl)-1-methyl-8-phenyl-3,4-dihydropyrido[4,3-d]pyrimidin-2(1H)-one]
17 | < 100 | < 100 | < 100 | CCn1cc(-c2c(N)ncc3c2N(C)C(=O)N(c2c(F)c(OC)cc(OC)c2F)C3)cn1 [Example 9, 7-amino-3-(2,6-difluoro-3,5-dimethoxyphenyl)-1-methyl-8-(1-ethyl-1H-pyrazol-4-yl)-3,4-dihydropyrido[4,3-d]pyrimidin-2(1H)-one]
18 | < 100 | < 100 | < 100 | COc1cc(OC)c(F)c(N2Cc3cnc(N)c(C)c3N(c3nnn(C)n3)C2=O)c1F [Example 46, 7-amino-3-(2,6-difluoro-3,5-dimethoxyphenyl)-8-methyl-1-(2-methyl-2H-tetrazol-5-yl)-3,4-dihydropyrido[4,3-d]pyrimidin-2(1H)-one]
19 | < 100 | < 100 | < 100 | COc1cc(OC)c(F)c(N2Cc3cnc(N[C@H]4CC[C@H](O)CC4)cc3C3(CC3)C2=O)c1F [Example 40, 2′-(2,6-difluoro-3,5-dimethoxyphenyl)-6′-(trans-4-hydroxycyclohexylamino)-1′H-spiro[cyclopropane-1,4′-[2,7]naphthyridin]-3′(2′H)-one]
20 | < 100 | < 100 | < 100 | CCOc1c(N)ncc2c1N(C)C(=O)N(c1c(F)c(OC)cc(OC)c1F)C2 [Example 4, 7-amino-3-(2,6-difluoro-3,5-dimethoxyphenyl)-8-ethoxy-1-methyl-3,4-dihydropyrido[4,3-d]pyrimidin-2(1H)-one]
